Assay results from patent US20230312504A1, “QUINOLINE COMPOUNDS” (Guangzhou Baiyunshan Pharmaceutical Holdings Co., Ltd. …, priority 2020, published 2023).
pIC50: −log10 of the molar value.

Legend:
[1] = target: human wild-type RET kinase (Homo sapiens (Human), UniProt P07949); assay: 33P-labeled kinase activity assay, wild-type RET; format: biochemical; details: 33P-ATP at Km concentration; read-out: RET(WT) IC50
Experimental: (§1) The inhibitory activity of the test compounds against human wild-type and V804M mutant RET kinase was evaluated by measuring IC50 values in a ^33P-labeled kinase activity assay (Reaction Biology Corp).
(§2) Buffer conditions: 20 mM hydroxyethyl-piperazine-ethanesulfonic acid (Hepes) (pH 7.5), 10 mM MgCl2, 1 mM ethylene glycol-bis(aminoethyl ether)-tetraacetic acid (EGTA), 0.02% polyoxyethylene lauryl ether (Brij35), 0.02 mg/mL BSA, 0.1 mM Na3VO4, 2 mM dithiothreitol (DTT), and 1% DMSO.
(§3) Compound handling: testing compounds were dissolved in 100% DMSO to specific concentration. Serial dilution can be conducted using Integra Viaflo Assist in DMSO.
(§4) Procedures: the substrate was dissolved in freshly prepared Reaction Buffer, the test kinase was added into the substrate solution and gently mixed. Compounds in DMSO were added into the above kinase reaction mixture by Acoustic technology (Echo550) and incubate for 20 minutes at room temperature. The concentrations of the compounds in the reaction solutions were 3 μM, 1 μM, 0.333 μM, 0.111 μM, 0.0370 μM, 0.0123 μM, 4.12 nM, 1.37 nM, 0.457 nM and 0.152 nM. […] The reaction was conducted for 120 minutes at room temperature, and radioactivity was detected by filter-binding method. Kinase activity data can be expressed as the percent remaining kinase activity in test samples compared to vehicle (DMSO only) reactions. […]

[2] = target: human V804M mutant RET kinase (Homo sapiens (Human), UniProt P07949, V804M); assay: 33P-labeled kinase activity assay, V804M mutant RET; format: biochemical; details: 33P-ATP at Km concentration
Experimental: as §1, §2, §3, §4

[3] = Microsome metabolic stability, human; format: in vitro ADME; details: human liver microsomes, 1 μM compound, 0.5 mg/mL; read-out: MMS CLint(liver)-H
Experimental: (§5) To evaluate the Phase I metabolic stability of the test compound in animal and human liver microsomes.
(§6) 10 μL of the test compound working solution and 80 μL of microsome working solution (0.625 mg/mL liver microsome protein) were added to the reaction plate and NCF60 plate, respectively, while only microsome working solution was added to the Blank60 plate, then, the above incubation plates were placed in a 37° C. water bath for pre-incubation for approximately 10 minutes.
(§7) After the pre-incubation, 10 μL of a NADPH regeneration system working solution was added into each sample well of all the plates except the NCF60 plate and TO plate to start the reaction, and 10 μL of potassium phosphate buffer was added to each well of the NCF60 plate. The final reaction concentrations of the test sample or control sample were 1 μM, the concentration of the liver microsomes was 0.5 mg/mL.
(§8) After incubation for an appropriate time, 300 μL of a stop solution (acetonitrile solution containing 200 ng/mL tolbutamide) was added to each sample well to stop the reaction; stop solution and then NADPH regeneration system working solution were added to the TO plate in sequence.
(§9) All the sample plates were shaken and centrifuged at 3220 rpm for 20 min, and then 100 μL of supernatant was taken from each well and diluted with 300 μL of pure water for LC-MS/MS analysis. […]

[4] = Microsome metabolic stability, cynomolgus monkey; format: in vitro ADME; details: cynomolgus monkey liver microsomes, 1 μM compound, 0.5 mg/mL; read-out: MMS CLint(liver)-C
Experimental: as §5, §6, §7, §8, §9

[5] = Microsome metabolic stability, Beagle; format: in vitro ADME; details: dog; Beagle liver microsomes, 1 μM compound, 0.5 mg/mL; read-out: MMS CLint(liver)-D
Experimental: as §5, §6, §7, §8, §9

[6] = Microsome metabolic stability, rat; format: in vitro ADME; details: rat liver microsomes, 1 μM compound, 0.5 mg/mL; read-out: MMS CLint(liver)-R
Experimental: as §5, §6, §7, §8, §9

[7] = Microsome metabolic stability, mice; format: in vitro ADME; details: mouse; mice liver microsomes, 1 μM compound, 0.5 mg/mL; read-out: MMS CLint(liver)-M
Experimental: as §5, §6, §7, §8, §9

CYP1A2 = CYP1A2 (Homo sapiens (Human), UniProt P05177); assay: CYP inhibition in human liver microsomes, CYP1A2; format: in vitro ADME; details: 0.05-50 μM
Experimental: (§10) Mixed probe substrate of CYP isozymes were used to evaluate the inhibition of compounds of the present disclosure to human liver microsomal cytochrome P450 isoenzymes (CYP1A2, CYP2C9, CYP2C19, CYP2D6, and CYP3A4).
(§11) The testing compound was dissolved in DMSO to prepare a 10 mM stock solution. 178 μL of the mixture solution of human liver microsomes and substrate was added into non-inhibitor control (NIC) wells and test compound sample wells of the reaction plate, and the reaction plate was placed on ice. 2 μL of blank solvent and test compound working solution was taken from the dilution plate, respectively, and then added into the reaction plate (final concentration: 0.05-50 μM). The reaction plate was preheated in a 37±0.2° C. water bath for 10 minutes. 20 μL of cofactor solution was added into the reaction plate using a liquid handling workstation to initiate the reaction.
(§12) After 10 minutes, 400 μL of stop solution was added to the reaction plate to stop the reaction, and the reaction plate was placed on ice for 5 minutes. […] The peak areas of the substrate and product were detected by liquid chromatography tandem mass spectrometry (LC/MS/MS). […]
(§13) A nonlinear regression analysis of mean percentage activity of the test compound against concentration was performed using SigmaPlot (V.11). The IC50 value was calculated using a three- or four-parameter inverse logarithmic equation. […]

CYP2C9 = CYP2C9 (Homo sapiens (Human), UniProt P11712); assay: CYP inhibition in human liver microsomes, CYP2C9; format: in vitro ADME; details: 0.05-50 μM
Experimental: as §10, §11, §12, §13

CYP2C19 = CYP2C19 (Homo sapiens (Human), UniProt P33261); assay: CYP inhibition in human liver microsomes, CYP2C19; format: in vitro ADME; details: 0.05-50 μM
Experimental: as §10, §11, §12, §13

CYP2D6 = CYP2D6 (Homo sapiens (Human), UniProt P10635); assay: CYP inhibition in human liver microsomes, CYP2D6; format: in vitro ADME; details: 0.05-50 μM
Experimental: as §10, §11, §12, §13

CYP3A4 = CYP3A4 (Homo sapiens (Human), UniProt P08684); assay: CYP inhibition in human liver microsomes, CYP3A4; format: in vitro ADME; details: 0.05-50 μM
Experimental: as §10, §11, §12, §13

[8] = Pharmacokinetics study of mice; format: in vivo; details: mouse, male CD-1 mice, plasma
Text: The purpose of this experiment was to study the pharmacokinetics of the test compound in the plasma of male CD-1 mice after intravenous injection and oral administration.
The animals were randomly divided into two groups with 2 males in each group. The compounds were formulated into prescribed preparations. Intravenous formulations were formulated with 5% DMS 0/95% (6% hydroxypropyl-β-cyclodextrin) to give a clear solution, and oral preparations were formulated with 0.1% Tween80/0.5% HPMC aqueous solution to give a homogeneous suspension.
Whole blood samples were collected from the saphenous vein of the animals 5 minutes, 15 minutes, 30 minutes, 1 hour, 2 hours, 4 hours, 8 hours, 12 hours, and 24 hours after administration. The whole blood sample was added to the centrifuge tube containing anticoagulant, and centrifuged at 3200 g for 10 minutes at 4° C. The supernatant of plasma was taken, frozen quickly on dry ice, and then stored in a −70±10° C. refrigerator until LC-MS/MS analysis.
WinNonlin™ Version 6.3.0 (Pharsight, Mountain View, Calif.) pharmacokinetic software was used to process the plasma drug concentration data of the compounds with a non-compartmental model. The peak concentration (Cmax), peak time (Tmax) and quantifiable end time were obtained directly from the blood drug concentration-time profile.
The following pharmacokinetic parameters were calculated using the log-linear trapezoid method: Plasma clearance rate (CL), volume of distribution (Vd), elimination phase half-life (T1/2), average residence time of drug in the body from 0 to the end time point (MRT0-last), average residence time of the drug in the body from 0 to infinite time (MRT0-inf), area under the time-plasma concentration curve from 0 to the end time point (AUC0_last), area under the time-plasma concentration curve from 0 to infinite time (AUC0-inf) and bioavailability (F).

[9] = 0.5 mg/kg, 0.5 mpk intravenous injection
[10] = 2.5 mg/kg, 2.5 mpk oral administration

Chain of CYP2D6 (P10635 whole entry): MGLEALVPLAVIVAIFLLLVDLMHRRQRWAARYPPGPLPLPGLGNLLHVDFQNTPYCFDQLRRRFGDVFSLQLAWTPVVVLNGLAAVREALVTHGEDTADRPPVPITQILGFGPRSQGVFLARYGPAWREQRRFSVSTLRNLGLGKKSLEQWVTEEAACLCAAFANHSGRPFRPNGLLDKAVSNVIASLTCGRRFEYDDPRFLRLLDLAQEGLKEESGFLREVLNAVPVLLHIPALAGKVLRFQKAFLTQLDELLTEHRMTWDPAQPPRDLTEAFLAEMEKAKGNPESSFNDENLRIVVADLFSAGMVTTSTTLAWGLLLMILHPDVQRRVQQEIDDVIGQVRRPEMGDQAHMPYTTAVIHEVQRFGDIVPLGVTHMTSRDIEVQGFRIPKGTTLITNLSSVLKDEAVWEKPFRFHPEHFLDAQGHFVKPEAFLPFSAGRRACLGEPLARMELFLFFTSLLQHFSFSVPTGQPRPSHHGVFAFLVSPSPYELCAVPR
Chain of human V804M mutant RET kinase (P07949 29-1114 V804M): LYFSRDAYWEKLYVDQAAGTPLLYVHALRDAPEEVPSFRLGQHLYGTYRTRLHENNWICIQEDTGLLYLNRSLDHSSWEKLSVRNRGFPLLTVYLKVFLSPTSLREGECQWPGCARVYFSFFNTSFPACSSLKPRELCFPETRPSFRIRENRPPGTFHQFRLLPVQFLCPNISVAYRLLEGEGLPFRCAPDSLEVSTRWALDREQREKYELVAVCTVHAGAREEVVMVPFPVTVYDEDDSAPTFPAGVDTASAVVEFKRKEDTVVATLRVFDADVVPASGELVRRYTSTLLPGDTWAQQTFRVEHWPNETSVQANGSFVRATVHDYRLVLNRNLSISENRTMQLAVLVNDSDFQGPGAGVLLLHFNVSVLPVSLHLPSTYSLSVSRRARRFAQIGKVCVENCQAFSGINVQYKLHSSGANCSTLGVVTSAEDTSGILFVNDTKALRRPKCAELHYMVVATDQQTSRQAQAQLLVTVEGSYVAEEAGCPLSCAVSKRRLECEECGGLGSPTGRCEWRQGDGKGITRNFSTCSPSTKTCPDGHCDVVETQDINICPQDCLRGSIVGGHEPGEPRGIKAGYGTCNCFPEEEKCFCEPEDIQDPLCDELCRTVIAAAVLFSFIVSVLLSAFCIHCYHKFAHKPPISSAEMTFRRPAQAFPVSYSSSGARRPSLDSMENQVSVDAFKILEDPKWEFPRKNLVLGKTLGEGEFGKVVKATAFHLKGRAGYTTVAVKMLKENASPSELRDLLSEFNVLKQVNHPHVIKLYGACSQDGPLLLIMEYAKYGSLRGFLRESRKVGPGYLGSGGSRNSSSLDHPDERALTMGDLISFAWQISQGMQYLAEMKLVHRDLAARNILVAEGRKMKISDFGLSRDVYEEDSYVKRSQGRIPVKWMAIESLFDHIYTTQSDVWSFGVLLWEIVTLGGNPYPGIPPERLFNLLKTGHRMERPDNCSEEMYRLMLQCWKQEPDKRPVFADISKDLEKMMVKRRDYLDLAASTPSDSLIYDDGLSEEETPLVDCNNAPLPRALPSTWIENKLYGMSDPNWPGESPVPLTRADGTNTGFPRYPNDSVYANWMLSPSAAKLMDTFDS
Chain of human wild-type RET kinase (P07949 29-1114): as the sequence (P07949 29-1114 V804M) above, with M776V counted along it
Chain of CYP1A2 (P05177 whole entry): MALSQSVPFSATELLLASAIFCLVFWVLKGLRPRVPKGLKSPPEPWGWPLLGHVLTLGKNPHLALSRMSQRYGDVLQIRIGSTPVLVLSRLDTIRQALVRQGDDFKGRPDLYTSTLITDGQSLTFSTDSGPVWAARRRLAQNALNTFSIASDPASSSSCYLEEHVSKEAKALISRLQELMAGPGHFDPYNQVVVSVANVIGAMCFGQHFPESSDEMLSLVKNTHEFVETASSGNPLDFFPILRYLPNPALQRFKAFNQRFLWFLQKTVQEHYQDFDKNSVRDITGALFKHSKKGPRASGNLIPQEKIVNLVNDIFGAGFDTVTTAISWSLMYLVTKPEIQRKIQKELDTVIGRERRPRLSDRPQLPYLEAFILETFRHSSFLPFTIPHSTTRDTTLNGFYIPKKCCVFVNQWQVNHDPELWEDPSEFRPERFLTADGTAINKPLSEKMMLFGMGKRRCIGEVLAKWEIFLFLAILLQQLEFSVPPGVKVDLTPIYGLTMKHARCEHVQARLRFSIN
Chain of CYP3A4 (P08684 whole entry): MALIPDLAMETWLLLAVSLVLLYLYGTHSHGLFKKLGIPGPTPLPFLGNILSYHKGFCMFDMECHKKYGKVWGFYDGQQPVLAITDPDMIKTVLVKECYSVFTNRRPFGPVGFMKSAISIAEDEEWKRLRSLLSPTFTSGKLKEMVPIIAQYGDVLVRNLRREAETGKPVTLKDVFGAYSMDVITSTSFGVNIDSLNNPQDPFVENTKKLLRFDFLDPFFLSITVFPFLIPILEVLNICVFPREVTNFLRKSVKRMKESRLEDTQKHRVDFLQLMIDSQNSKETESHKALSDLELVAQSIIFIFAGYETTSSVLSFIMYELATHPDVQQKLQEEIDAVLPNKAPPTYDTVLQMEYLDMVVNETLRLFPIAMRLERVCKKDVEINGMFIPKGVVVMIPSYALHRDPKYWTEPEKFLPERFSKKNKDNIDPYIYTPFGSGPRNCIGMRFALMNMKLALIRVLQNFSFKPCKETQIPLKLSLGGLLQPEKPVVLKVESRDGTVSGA
Chain of CYP2C9 (P11712 whole entry): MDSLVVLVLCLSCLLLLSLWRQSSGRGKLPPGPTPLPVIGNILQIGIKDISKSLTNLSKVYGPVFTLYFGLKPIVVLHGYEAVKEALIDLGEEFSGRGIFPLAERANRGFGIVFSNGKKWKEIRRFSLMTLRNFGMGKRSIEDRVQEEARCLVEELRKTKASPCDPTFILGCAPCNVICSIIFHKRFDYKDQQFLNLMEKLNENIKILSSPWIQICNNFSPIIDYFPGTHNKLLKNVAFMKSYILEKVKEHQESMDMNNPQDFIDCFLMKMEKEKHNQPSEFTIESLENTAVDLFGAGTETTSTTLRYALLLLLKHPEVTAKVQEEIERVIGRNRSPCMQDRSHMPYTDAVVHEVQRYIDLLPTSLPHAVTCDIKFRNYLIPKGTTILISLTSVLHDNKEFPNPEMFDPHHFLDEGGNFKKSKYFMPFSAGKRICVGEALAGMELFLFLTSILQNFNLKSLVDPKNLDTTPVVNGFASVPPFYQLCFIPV
Chain of CYP2C19 (P33261 whole entry): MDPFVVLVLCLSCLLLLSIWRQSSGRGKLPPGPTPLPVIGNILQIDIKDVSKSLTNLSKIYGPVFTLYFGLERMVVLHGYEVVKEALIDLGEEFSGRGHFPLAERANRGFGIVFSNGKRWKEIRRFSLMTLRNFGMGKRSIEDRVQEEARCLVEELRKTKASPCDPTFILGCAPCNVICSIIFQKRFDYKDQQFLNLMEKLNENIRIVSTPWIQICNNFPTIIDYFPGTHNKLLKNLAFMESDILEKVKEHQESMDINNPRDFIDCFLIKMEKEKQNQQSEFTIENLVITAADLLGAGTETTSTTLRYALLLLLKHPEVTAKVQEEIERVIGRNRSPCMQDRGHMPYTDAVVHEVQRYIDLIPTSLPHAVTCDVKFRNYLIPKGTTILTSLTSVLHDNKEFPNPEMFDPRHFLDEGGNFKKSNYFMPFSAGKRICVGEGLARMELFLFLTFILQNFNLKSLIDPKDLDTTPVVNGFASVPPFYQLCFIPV

pIC50 [1]: 9.30
pIC50 [2]: 9.05
CLint scaled at 1 μM [3]: 1.24 L/h/kg
CLint scaled at 1 μM [4]: 7.6 L/h/kg
CLint scaled at 1 μM [5]: 1.35 L/h/kg
CLint scaled at 1 μM [6]: < 1.04 L/h/kg
CLint scaled at 1 μM [7]: 5.31 L/h/kg
pIC50 (CYP1A2): < 4.30
pIC50 (CYP2C9): 4.90
pIC50 (CYP2C19): 4.77
pIC50 (CYP2D6): 4.73
pIC50 (CYP3A4): < 4.30
AUC(0-inf) [8, 9]: 5.19 µM·h
C0 [8, 9]: 1.3 µM
clearance [8, 9]: 0.161 L/h/kg
half-life [8, 9]: 6.93 h
Vd ([8]; 0.5 mg/kg, 0.5 mpk intravenous injection, read-out: Vdss): 1.52 L/kg
AUC(0-inf) [8, 10]: 12.5 µM·h
Cmax [8, 10]: 0.958 µM
Tmax [8, 10]: 8 h
half-life [8, 10]: 5.16 h
SMILES: CCN1CCN(Cc2cc(F)c(NC(=O)Cc3ccc(-c4cnc5cc(OC)c(OC)cc5c4)nc3)cc2C(F)(F)F)CC1 [Compound 1]
